Calls of active or inactive are those of the source. The rule behind the calls is not given here.
Key:
[1] = target: T1, Indoleamine 2,3-dioxygenase 1 (Homo sapiens, UniProt P14902); assay: Inhibition of ascorbic acid/methylene blue activated recombinant human IDO expressed in Escherichia coli using L-Tryptophan as substrate after 60 mins by spectrophotometric method
Target sequence in this assay (P14902 whole entry): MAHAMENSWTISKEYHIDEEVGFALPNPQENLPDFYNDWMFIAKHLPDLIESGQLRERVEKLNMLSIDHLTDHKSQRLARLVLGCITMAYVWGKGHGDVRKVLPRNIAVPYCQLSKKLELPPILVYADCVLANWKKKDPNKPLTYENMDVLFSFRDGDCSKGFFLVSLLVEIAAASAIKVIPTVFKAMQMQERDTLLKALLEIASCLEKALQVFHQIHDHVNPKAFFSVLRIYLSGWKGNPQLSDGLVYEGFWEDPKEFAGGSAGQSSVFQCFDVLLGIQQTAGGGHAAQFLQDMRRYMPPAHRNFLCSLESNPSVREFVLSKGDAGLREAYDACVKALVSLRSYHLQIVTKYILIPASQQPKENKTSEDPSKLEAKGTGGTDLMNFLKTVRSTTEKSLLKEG

[2] = system: MDA-MB-231; assay: Antiproliferative activity against human MDA-MB-231 cells after 48 hrs by MTT assay; format: functional, cell-based; conditions: MDA-MB-231, 48 h
[3] = system: HeLa; assay: Antiproliferative activity against human HeLa cells after 48 hrs by MTT assay; format: functional, cell-based
[4] = system: SW480; assay: Antiproliferative activity against human SW480 cells after 48 hrs by MTT assay; format: functional, cell-based; conditions: SW480, 48 h
[5] = system: HL-60; assay: Antiproliferative activity against human HL60 cells after 48 hrs by EZ-Cytox cell viability assay; format: functional, cell-based; conditions: HL-60, 48 h
[6] = system: U2OS; assay: Antiproliferative activity against human U2OS cells after 48 hrs by MTT assay; format: functional, cell-based
[7] = target: T1, Indoleamine 2,3-dioxygenase 1; assay: Inhibition of ascorbic acid/methylene blue activated recombinant human IDO expressed in Escherichia coli up to 10 uM using L-Tryptophan as substrate after 60 mins by spectrophotometric method relative to control
Target sequence in this assay (P14902 whole entry, looked up): as the sequence (P14902 whole entry) above

[8] = system: HeLa; assay: Induction of autophagosome accumulation in human HeLa cells harboring RFP-GFP-LC3 assessed as GFP-LC3 puncta formation at 30 uM after 24 hrs by DAPI staining based fluorescence microscopic method; format: functional, cell-based
[9] = system: HeLa; assay: Induction of autophagosome accumulation in human HeLa cells harboring RFP-GFP-LC3 assessed as increase in p62 level after 24 hrs by immunoblot method; format: functional, cell-based
[10] = system: HeLa; assay: Induction of autophagosome accumulation in human HeLa cells harboring RFP-GFP-LC3 assessed as increase in LC3-2 level after 24 hrs by immunoblot method; format: functional, cell-based

With CC(=O)NC1=CC(=O)c2cc(O[C@@H]3O[C@@H](C)[C@@H](O)[C@@H](O)[C@H]3O)c(C)cc2C1=O the IC50 [1] was 0.56 µM, the IC50 [2] was 72.1 µM and the IC50 [3] was 35 µM. The IC50 [4] was 9.3 µM, the IC50 [5] was 7.1 µM and the IC50 [6] was 33.6 µM.
Compound CNc1ccccc1C(=O)O[C@@H]1O[C@@H](C)[C@@H](O)[C@@H](O)[C@H]1O has an inhibition [7] of less than 50%, an IC50 [2] greater than 100 µM and an IC50 [3] greater than 100 µM. For the same compound, the IC50 [4] was greater than 100 µM, the IC50 [5] was greater than 100 µM and the IC50 [6] was greater than 100 µM.
C/C=C(\C)[C@H](O)[C@H](C)/C=C(C)/C=C/C/C(C)=C/Cc1nc(OC)c(OC)c(O)c1C [PIERICIDIN A] was tested, and the inhibition [7] was less than 50%, the IC50 [2] was greater than 100 µM and the IC50 [3] was 84.9 µM. The IC50 [4] was 82.1 µM, the IC50 [5] was 82.1 µM and the IC50 [6] was 91.5 µM. For the same compound, the Activity [8] was “Active”, the Activity [9] was “Dose-dependent effect” and the Activity [10] was “Dose-dependent effect”.
C/C(=C\[C@H](C)[C@@H](O)[C@@H](C)/C=C/[C@@H](O)C/C=C(\C)C(=O)C[C@H](O)[C@@H](C)/C=C/C=C\C=C/C(=O)NC1=C(Cl)C(=O)c2cc(O)c(C)cc2C1=O)C(=O)O was tested, and the IC50 [2] was greater than 100 µM, the IC50 [3] was 71.4 µM and the IC50 [4] was 78.1 µM. It also gave an IC50 [5] of 42.2 µM and an IC50 [6] greater than 100 µM.
Work on COc1cccc2c1C(=O)c1c(O)c3c(c(O)c1C2=O)C[C@@](O)(C(=O)CO)C[C@@H]3O[C@H]1C[C@H](N)[C@H](O)[C@H](C)O1 [DOXORUBICIN] yielded an IC50 [2] of 0.369 µM, an IC50 [3] of 0.606 µM and an IC50 [4] of 0.406 µM. For the same compound, the IC50 [5] was 0.532 µM and the IC50 [6] was 0.563 µM.
With CC1=CC(=O)c2ccccc2C1=O [MENADIONE] the IC50 [1] was 0.37 µM.
C/C=C(\C)[C@H](O)[C@H](C)/C=C(C)/C=C/C/C(C)=C/Cc1nc(OC)c(OC)c(O[C@@H]2O[C@@H](C)[C@@H](O)[C@@H](O)[C@H]2O)c1C was tested, and the inhibition [7] was less than 50%, the IC50 [2] was 35.1 µM and the IC50 [3] was 27.3 µM. It also gave an IC50 [4] of 23 µM, an IC50 [5] of 24.8 µM and an IC50 [6] of 29.6 µM. The Activity [8] was “Active”, the Activity [9] was “Dose-dependent effect” and the Activity [10] was “Dose-dependent effect”.
C/C(=C\[C@H](C)[C@@H](O)[C@@H](C)/C=C/[C@@H](O)C/C=C(\C)C(=O)C[C@H](O)[C@@H](C)/C=C/C=C\C=C/C(=O)Nc1c(Cl)c(O[C@@H]2O[C@@H](C)[C@@H](O)[C@@H](O)[C@H]2O)c2cc(O)c(C)cc2c1O)C(=O)O showed an inhibition [7] of less than 50%, an IC50 [2] greater than 100 µM and an IC50 [3] greater than 100 µM. It also gave an IC50 [4] of 94.3 µM, an IC50 [5] of 91.4 µM and an IC50 [6] greater than 100 µM.
Compound C/C1=C/C=C\C=C\[C@H](C)[C@@H](O)CC(=O)/C(C)=C/C[C@H](O)/C=C/[C@H](C)[C@H](O)[C@@H](C)/C=C(\C)C(=O)c2c(O)c(C)cc3c2C(=O)C(Cl)=C(NC1=O)C3=O [NAPHTHOMYCIN A] has an IC50 [1] of 0.44 µM, an IC50 [2] of 34.6 µM and an IC50 [3] of 30.2 µM. For the same compound, the IC50 [4] was 7.6 µM, the IC50 [5] was 2.1 µM and the IC50 [6] was 20.5 µM.
